{"source": "patent US7981911B2", "about": "“Pharmaceutical formulations” (Abbott Laboratories, priority 1999, dated 2011)", "experiment": "oral bioavailability in dogs", "assay_type": "in vivo", "details": "both sexes, beagle, dog, plasma; unformulated solid in a capsule dosage form; 5 mg/kg oral dose in dogs", "description": "Dogs (beagle dogs, mixed sexes, weighing 7-14 kg) were fasted overnight prior to dosing, but were permitted water ad libitum. Each dog received a 100 μg/kg subcutaneous dose of histamine approximately 30 minutes prior to dosing. Each dog received a single dosage form corresponding to a 5 mg/kg dose of the drug. The dose was followed by approximately 10 milliliters of water. Blood samples were obtained from each animal prior to dosing and 0.25, 0.5, 1.0, 1.5, 2, 3, 4, 6, 8, 10, and 12 hours after drug administration. The plasma was separated from the red cells by centrifugation and frozen (−30° C.) until analysis. Concentrations of parent drug were determined by reverse phase HPLC with low wavelength UV detection following liquid-liquid extraction of the plasma samples. The parent drug area under the curve was calculated by the trapezoidal method over the time course of the study. The absolute bioavailability of each test composition was calculated by comparing the area under the curve after oral dosing to that obtained from a single intravenous dose. Each capsule or capsule composition was evaluated in a group containing at least six dogs; the values reported are averages for each group of dogs.", "data": [{"smiles": "CC(C)c1nc(CN(C)C(=O)NC(C(=O)NC(Cc2ccccc2)CC(O)C(Cc2ccccc2)NC(=O)OCc2cncs2)C(C)C)cs1", "note": "(stereo not shown) [compound of formula I]", "values": [{"measurement": "bioavailability", "result": "< 2", "unit": "%"}]}]}
